The structures appear in SMILES notation. Where a SMILES comes first, the peptide text is derived from it.

In publication PMC5686072, “Targeting SxIP-EB1 interaction: An integrated approach to the discovery of small molecule modulators of dynamic binding sites” (Scientific Reports, 2017) one finds Kd data, which are given here for three compounds.

The assay deals with T1, EB1_191–260 (EB1c) (Homo sapiens, UniProt Q15691).
T1 construct: Human EB1 (Uniprot code Q15691), residues 191–260, was cloned into pOPINS vector; SUMO fusion protein (cleaved yes); 6xHis (cleaved yes); made in house; host or cells: E. coli BL21 Star (DE3)
T1 sequence (Q15691 191-260): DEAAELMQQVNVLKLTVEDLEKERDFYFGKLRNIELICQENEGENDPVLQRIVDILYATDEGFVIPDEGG
Nature of the assay: 1H-15N HSQC NMR ligand screening / titration (chemical shift perturbations, KD by curve fitting). The format is binding. Particulars: NMR titration curves (Tyr247) fitted to two-state exchange model; 50 μM protein; read-out: estimated KD. The text has this:
The ^1H and ^15N resonances were fully assigned using complementary pairs of triple resonance NMR spectra - CBCA(CO)NH/HNCACB for Cα and Cβ and HNCO/HN(CA)CO for CO connectivities.
Ligand-induced chemical shift perturbations (CSPs) in NH resonances on addition of the ligand were used as an indication of ligand binding and location of the binding site.
NMR spectra were collected on Bruker Avance III 600 and 800 MHz spectrometers equipped with CryoProbes. Spectra were processed with TopSpin (Bruker) and analysed using CCPNmr Analysis[35]. ^1H-^15N HSQC ligand screening ^1H-^15N- Heteronuclear Single Quantum Coherence (HSQC) experiments for ligand binding screening were performed using 0.05 mM ^15N-labelled EB1 in 20 mM phosphate pH 6.5, 50 mM NaCl, 0.5 mM TCEP, 0.02% (w/v) NaN3 in the absence or presence of ligands. To eliminate any small shifts induced by the small amounts of DMSO used to dissolve the compounds, DMSO concentration was kept constant in all experiments.
The dotted lines connect the values calculated for the best-fit curves at the titration points. Ligand concentration corresponds to the excess of ligand (e.g. 10-fold excess, 20-fold excess) to the protein concentration (50 μM). Binding constants were evaluated by fitting the experimental data to the […]
∆δ = ∆δ {([P] + [L] + K ) − [([P] + [L] + K )2 − 4[P] [L] ]1⁄2}⁄2[P] […]

As to `C[C@@H](Sc1nnnn1C1CCCC1)C(=O)NCc1ccco1` [1a], the Kd (usually the concentration at which binding is half-saturated) was 10 ± 3 mM.

Take `Cc1c(NC(=O)[C@@H](C)Sc2nnnn2C2CCCC2)c(=O)n(-c2ccccc2)n1C` [1d]: the Kd was 6 ± 1 mM.

`CC[C@H](C)[C@H](NC(=O)[C@H](CCCCN)NC(=O)[C@@H](N)CO)C(=O)N1CCC[C@H]1C(=O)O` [SKIP, reference compound] (H-SKIP-OH): the Kd is 14 ± 1.9 mM.
